Source: US20230390312A1, “NOVEL THERAPEUTIC COMBINATIONS COMPRISING DERIVATIVES OF OXAZAPHOSPHORINES FOR THE TREATMENT OF CANCER” (INSTITUT GUSTAVE ROUSSY, priority 2019, published 2023)
“Also recorded” adds a separate entry of the source. Where two headings read alike, the source gives them in different places.

Experiments:
[1] = tested on: B cells; type: in vivo, mouse; conditions: for B cell depletion in the spleen: FIG. 4, IFO 150 mg/kg, CPA 100 mg/kg, G-IFO eq. 100 or 150 mg/kg, single i.p., 7 days
Procedure: (§1) Female C57BL/6 mice of 7 to 8 weeks were randomly assigned to the different treatment groups. […] Both drugs were dissolved in a solution of NaCl 0.9%. […] Seven days post treatment, the mice were sacrificed, spleens and tumors were collected. After lysis of red blood cells with ammonium chloride splenic viable cells were quantified with Trypan Blue with Vi-CELL XR (Beckman Coulter).
(§2) Briefly, tumor dissociation was done with GentleMACS™ Dissociator after adding ADNase (260913, Millipore) and […] (5401127001, Sigma) to weighed and cut tumors. Tumor cells were incubated for 40 min at 37° C. under stirring and then quantified with Trypan Blue with Vi-CELL XR (Beckman Coulter). Before staining, Fcγ-receptors were blocked for 15 min at 4° C. using anti-CD16/32 functional grade purified antibodies (eBioscience, Paris, France). Cells were incubated for 30 min at 4° C. with antibodies for cell surface staining. For FoxP3 staining, cells were fixed and permeabilized after cell surface staining according to the FoxP3 kit protocol (eBioscience, Paris, France). Samples were acquired on 10-colors Gallios cytometer (Beckman Coulter, Villepinte, France). Analyses were performed using Kaluza software 1.3 (Beckman Coulter). Two different panels were used to identify immune cells. First leucocytes were identified by the use of FITC-conjugated anti-mouse CD45. T and B lymphocytes were identified using APC-Cy7-conjugated anti-mouse CD3 and BV421-conjugated anti-mouse CD19 respectively. CD4^+ and CD8^+ T cells were separated using PE-Cy7-conjugated anti-mouse CD4 and APC-R700-conjugated anti-mouse CD8a staining among CD3 positive cells, respectively. Treg cells were stained using APC-conjugated anti-mouse FoxP3 staining among CD3^+CD4^+ T cells (Table 1).

[2] = tested on: IFNγ, IL-17A and IL-6 secretion; assay: TCR-driven cytokine release by splenocytes of treated naive mice; type: in vivo, mouse; conditions: CPA 100 mg/kg, IFO 100, 150 and 200 mg/kg, CD3ε+CD28 stimulation
Procedure: as §1
(§3) From spleen cell suspension, a total of 2·10^5 cells per well were incubated in 96 well Nunc MaxiSorp® plates (eBioscience) precoated with anti-CD3ε mAbs (clone 145-2C11, 10 μg/mL); eBioscience) and/or anti-CD28 mAbs (clone 37.57, 2 μg/mL; BD Pharmingen). The supernatants were assayed after 48 hours of incubation at 37° C. under 5% CO2 using Cytokine concentrations were quantified in the supernatant using a Bio-Plex™ Mouse Cytokine Standard 23-Plex, Group I Assay (bio rad, M60009RDPD). The panel was comprised of the following cytokines and chemokines: eotaxin, Granulocyte-Colony Stimulating Factor (G-CSF), Granulocyte-Macrophage-Colony Stimulating Factor (GM-CSF), interferon gamma (IFNγ), interleukin (IL)-1α (IL-1α), IL-1β, IL-2, IL-3, IL-4, IL-5, IL-6, IL-9, IL-10, IL-12p40, IL-12p70, IL-13, IL-17A, Keratinocyte Chemoattractant (KC), Macrophage Chemotactic Protein-1 (MCP-1), Macrophage Inflammatory Protein (MIP)-1alpha (MIP-1α), MIP-1β, Regulated on Activation Normal T cell Expressed and Secreted (RANTES) and Tumor Necrosis Factor-alpha (TNF-α). Results were analyzed using Bio-Plex Manager Software V 6.1 (Bio-Rad Laboratories, Hercules, CA, USA). […] These three cytokines were then quantified using mouse IL-17A ELISA Ready-SET-Go® (eBiosciences), Mouse IFNy ELISA Set (BD Biosciences) and Mouse IL-6 ELISA Set (BD Biosciences).

[3] = tested on: MCA205 fibrosarcoma tumor; type: in vivo, mouse; conditions: single i.p.
Procedure: 7-8 weeks-old female C57BL/6 mice (mean body weight, 20 g) were purchased from Harlan Laboratories (Gannat, France). Animals were used in pathogen-free conditions. MCA205 fibrosarcoma tumor cell line (syngenic from C57Bl/6 mice) was kindly provided by Dr Yamazaki Takahiro (INSERM U1015, Gustave Roussy, Villejuif, France). They were harvested at 37° C. under 5% CO2 in Gibco™ RPMI 1640 medium (Paisley, UK) supplemented with 10% Fetal Bovine Serum (Paisley, UK) and 2 mM L-glutamine (Invitrogen, USA). All animal experiments were carried out in compliance with French and European laws and regulations and by the CEEA26 Ethic committee and the ministry of national education, higher education and research and carried out under conditions established by the European Community (Directive 2010/63/2015-038).
(§4) 8·10^5 tumor cells were inoculated subcutaneously (s.c.) in the right flank of C57Bl/6 mice on DO.
Regarding study for combination between chemotherapy (G-IFO) and anti-PD1 mAbs, mice received G-IFO or vehicle on D9 then 200 μg/mouse i.p. injections of anti-PD1 mAbs (clone RMP1-14) or its isotype control Rat IgG2a (clone 2A3) on D12, D15 and D19. Tumor volume was followed-up three times a week by measuring the length and width using a caliper. In order to normalize tumor measurements for each day VTDx to VTDi (VTDx/VTDi) ratio was calculated; VTDi corresponds to the tumor volume the day of treatment initiation and VTDx corresponds to the tumor volume on each measurement day for each mouse.

[4] = tested on: large panel of tumor cells; conditions: in vitro; cited from earlier work
[5] = mice, intravenous route; cited from earlier work
[6] = tested on: T cells; type: in vivo, mouse; conditions: for T cell counts: tumor-bearing mice
Procedure: (§5) Female C57BL/6 mice of 7 to 8 weeks were randomly assigned to the different treatment groups. […] Both drugs were dissolved in a solution of NaCl 0.9%. […] The administrations were performed by a single i.p. injection with a volume of 20 mL/kg or 10 mL/kg when adding G-IFO groups. Seven days post treatment, the mice were sacrificed, spleens and tumors were collected. After lysis of red blood cells with ammonium chloride splenic viable cells were quantified with Trypan Blue with Vi-CELL XR (Beckman Coulter).
as §2

[7] = tested on: rhabdomyosarcoma; conditions: murine model of rhabdomyosarcoma; cited from earlier work
[8] = tested on: IFNγ, IL-17A and IL-6 secretion; assay: TCR-driven cytokine release by splenocytes of treated MCA205 tumor-bearing mice; type: in vivo, mouse
Procedure: as §5, §3

[9] = tested on: advanced refractory soft tissue; conditions: high dose, cumulative dose of 12 000 mg/m2; cited from earlier work
[10] = tested on: MCA205 fibrosarcoma tumor; assay: Antitumor activity of IFO in MCA205-bearing mice depleted in CD4+ and/or CD8+ T cells; type: in vivo, mouse
Excerpt: as §4

[11] = tested on: osteosarcoma; conditions: high dose, cumulative dose of 14 000 mg/m^2, cited from earlier work
[12] = tested on: several cancerous cells; conditions: cited from earlier work
[13] = IFO 100 and 150 mg/kg, CD3ε and CD28 co-stimulation

SMILES: O=P1(N(CCCl)CCCl)NCCCO1 (stereo not drawn) [CPA, Cyclophosphamide]
- B cell depletion in the spleen [1]: Dose-dependent B cell depletion
- TCR-driven IFNγ [2]: significantly increased
- TCR-driven IL-6 [2]: significantly increased
- TCR-driven IL-17A [2]: significantly increased
- tumor growth ([3]; CPA 100 mg/kg): Significant reduction of the tumor growth

SMILES: CC(C)=CCC/C(C)=C/COC1CCOP(=O)(NCCCl)N1CCCl (stereo not drawn) [G-IFO, geranyloxy-Ifosfamide]
- B cell depletion in the spleen [1]: Dose-dependent B cell depletion
- B cells population ([1]; G-IFO low dose eq. 100 mg/kg, i.p.): very affected
- cytotoxicity [4]: cytotoxic
- tumor growth ([3]; G-IFO eq. 100 mg/kg): able to delay tumor growth; also recorded: showed an antitumoral activity; also recorded: delayed tumor-growth
- tumor growth delay compared to CPA 100 mg/kg ([3]; G-IFO eq. 100 mg/kg, FIG. 2D): lower tumor growth delay
- conversion into 4-hydroxy-ifosfamide metabolite [5]: rapidly converted
- T cell depletion ([6]; G-IFO eq. 150 mg/kg): induced T cell depletion
- tumor growth [7]: prevent tumor growth
- IFNγ secretion (Th1 polarization) ([8]; G-IFO eq. 100 mg/kg): favored IFNγ secretion; also recorded: increase
- IL-6 secretion ([8]; G-IFO eq. 100 mg/kg): increase
- IFNγ secretion ([8]; G-IFO eq. 150 mg/kg): poor secretion of IFNγ
- IL-6 secretion ([8]; G-IFO eq. 150 mg/kg): high levels of IL-6
- IL-17 secretion ([8]; escalating doses of G-IFO): No significant IL-17 secretion

SMILES: O=P1(NCCCl)OCCCN1CCCl (stereo not drawn) [IFO, ifosfamide]
- B cell depletion in the spleen [1]: Dose-dependent B cell depletion
- efficacy [9]: effective
- toxicities [9]: major toxicities
- TCR-driven IFNγ [2]: significant increase
- TCR-driven IL-6 [2]: significant increase
- TCR-driven IL-17A [2]: significant increase
- tumor growth ([10]; IFO 150 mg/kg single i.p., non-depleted mice): Significant reduction of the tumor growth
- antitumor effect ([10]; IFO 150 mg/kg, CD4+ T cells and CD8+ T cells depleted mice): decrease of the antitumor effect
- antitumor efficacy ([10]; IFO 150 mg/kg, mice depleted with both CD4+ and CD8+ T cells): completely abolished
- tumor growth ([3]; IFO 100, 150, 200 and 300 mg/kg): delay of tumor growth
- T cell counts ([6]; IFO 100 and 150 mg/kg): no T cell counts decrease
- T cell counts ([6]; IFO higher doses (200 and 300 mg/kg)): T cell counts diminution
- improved disease-free survival ([11]; children previously treated with conventional chemotherapy): 30 % of patients
- severe nephrotoxicity, share of patients [11]: a quarter
- TCR-driven IL-6 compared to CPA 100 mg/kg ([8]; IFO 150 mg/kg): more
- TCR-driven IL-17 compared to CPA 100 mg/kg ([8]; IFO 150 mg/kg): more
- TCR-driven IFNγ [8, 13]: significant secretion
- TCR-driven IL-6 [8, 13]: significant secretion
- TCR-driven IL-17A [8, 13]: significant secretion
- TCR-driven IFNγ ([8]; IFO 200 and 300 mg/kg): failed to induce
- TCR-driven IL-6 ([8]; IFO 200 and 300 mg/kg): remained highly secreted
- TCR-driven IL-17A ([8]; IFO 200 and 300 mg/kg): failed to induce

SMILES: CC(C)=CCC/C(C)=C/CC/C(C)=C/CC/C=C(\C)CC/C=C(\C)CCCOC1CCOP(=O)(NCCCl)N1CCCl (stereo not drawn) [SQ-IFO]
- cytotoxicity [12]: display cytotoxicity

SMILES: CC(C)=CCC/C(C)=C/CC/C(C)=C/CC/C=C(\C)CC/C=C(\C)CCC(=O)NCCSC1CCOP(=O)(NCCCl)N1CCCl (stereo not drawn) [SQ-thio-IFO]
- cytotoxicity [12]: display cytotoxicity
